According to patent publication US20110217293A1, “Uses of morelloflavone” (priority 2008, published 2011):

Assays:
Ldlr−/−Apobec1−/− mice [1] = assay: Analysis of atherosclerotic lesions (en-face and cross-sectional); type: in vivo, mouse; details: 8 months
Method: As a model of in vivo athereosclerosis, mice that lack the low density lipoprotein (LDL) receptor and Apobec 1 genes (Ldlr^−/−Apobec1^−/−) were used. The Ldlr^−/−Apobec1^−/− mice were generated by crossbreeding Ldlr^−/− mice (Jackson Lab, Bar Harbor, Me.) and Apobec1^−/− mice (Dr. Lawrence Chan, Baylor College of Medicine). Genotyping was performed in standard PCR-based methods, using following primer sets: For Apobec1, 5′-TGAGTGAGTGGTGGTGGTAAAG-3′ (SEQ ID NO: 1) and 5′-CGAAATTCCTCCAGCAGTAAC-3′ (SEQ ID NO: 2) where […] and […] mice would have 475 by amplicon while Apobec1^−/− have none. For Ldlr, 5′-ACCCCAAGACGTGCTCCCAGGATGA-3′ (SEQ ID NO: 3), 5′-CGCAGTGCTCCTCATCTGACTTGT-3′ (SEQ ID NO: 4), 5′-AGGATCTCGTCGTGACCCATGGCGA-3′ (SEQ ID NO: 5), and 5′-GAGCGGCGATACCGTAAAGCACGAGG-3′ (SEQ ID NO: 6) where Ldlr^+/+ mice would yield 383 bp amplicon, while Ldlr^−/− 200 bp and […] amplicons, respectively.
Twenty four (24) 8 week old Ldlr^−/−Apobec1^−/− mice were randomly assigned to either control group (normal rodent chow, Lab Diet, Richmond, Ind., N=12) or morelloflavone group (normal rodent chow supplemented with 0.003% (w/w) morelloflavone, N=12). The 0.003% (w/w) morelloflavone corresponds to approximately 4 mg/kg morelloflavone for 30 gram animals that consume 4 grams of chow. Animals were housed individually in an air-conditioned room with 12-h light/dark cycle with access to food and water. Body weight of these mice was monitored monthly. After 8 months, animals were sacrificed for analyses of atherosclerosis. Just prior to the sacrifice, blood was sampled from the heart and collected into micro-centrifuge tubes containing EDTA. The entire aortae were excised. All animal experimentation protocols were performed according to the protocol approved by the Institutional Animal Care and Use Committee (IACUC) of the University of Texas Health Science Center at Houston, in accordance with the National Institutes of Health guidelines.
The aortae and hearts were excised en bloc. The extent and degree of atherosclerosis was quantified by both en-face analyses of atherosclerosis lesions and the intimal areas of the ascending aortae at the level of aortic valve leaflet. For en-face analysis of atherosclerotic areas, the distal portion of the ascending aortae, aortic arches, and descending aortae down to the liac bifurcations were pinned flat on a white wax surface, fixed with 10% (v/v) buffered formalin solution overnight, stained by freshly prepared and filtered Oil red O solution for 1 hr, rinsed twice with 78% methanol, mounted and dried on the glass slides, and scanned in the TIFF format using the ScanScope slide scanning system (Nikon, Melville, N.Y.). The planimetry of the entire surface areas and Oil red O-positive atherosclerotic lesion areas was performed on the scanned images using Sigma Scan Pro software (SPSS Science, Chicago, Ill.).
For the cross sectional analyses of atherosclerosis, the roots of the ascending aortae were embedded in OCT compound (Tissue-Tek®, Sakura-Fineteck U.S.A., Torrance, Calif.). […] In both methods of atherosclerosis quantification, the images of aortae were digitally captured and stored in the TIFF format, using the ScanScope slide scanning system (Nikon, Melville, N.Y.). The quantification of the atherosclerotic area was performed by Image J software (NIH, Bethesda, Md.) and expressed at lesion areas (μm^2).

Ldlr−/−Apobec1−/− mice [2] = assay: Immunohistochemical and TUNEL analysis of atherosclerotic lesions; type: in vivo, mouse; details: aortic root, 8 months diet
Description: For the cross sectional analyses of atherosclerosis, the roots of the ascending aortae were embedded in OCT compound (Tissue-Tek®, Sakura-Fineteck U.S.A., Torrance, Calif.). The 5-μm cryostat sections were obtained at the levels of aortic valve leaflets and subjected to hematoxylin and eosin (H&E), TUNEL, and other immunohistochemical staining as described below. In both methods of atherosclerosis quantification, the images of aortae were digitally captured and stored in the TIFF format, using the ScanScope slide scanning system (Nikon, Melville, N.Y.). The quantification of the atherosclerotic area was performed by Image J software (NIH, Bethesda, Md.) and expressed at lesion areas (μm^2).
In order to identify within the intima vascular smooth muscle cells, macrophages, and proliferating cells, the tissue was stained using anti-smooth muscle cell alpha-actin (SMA) (catalog no. ab5694, Abcam, Cambridge, Mass.), anti-macrophage surface glycoproteins (F4/80, catalog no. ab6640, Abcam), and anti-Ki67 (Clone TEC-3, DAKO, Carpinteria, Calif.) antibodies, respectively, as described previously. Values are expressed as means±SD. Comparisons of parameters between two groups were made with the two-tailed Student's t test. When appropriate, ANOVA was performed to compare multiple groups. A value of P<0.05 was considered statistically significant.

O=C1c2c(O)cc(O)cc2O[C@H](c2ccc(O)cc2)[C@H]1c1c(O)cc(O)c2c(=O)cc(-c3ccc(O)c(O)c3)oc12 [morelloflavone, 5,7, 4′, 5″, 7″, 3″, 4″-heptahydroxy-[3,8″]-flavonylflavanone]
atherosclerotic surface area, en-face analysis (Ldlr−/−Apobec1−/− mice [1]; 0.003% (w/w) diet (0.03%), male Ldlr−/−Apobec1−/− mice): 24.9±6.9 % of the total aortic surface area
atherosclerotic lesion area, cross-sectional analysis at aortic valve (Ldlr−/−Apobec1−/− mice [1]; 0.003% diet): 5.65±1.05 ×10^3 μm^2
reduction of cross-sectional lesion area vs control (Ldlr−/−Apobec1−/− mice [1]; 0.003% diet): 26%
reduction of en-face atherosclerotic area vs control (Ldlr−/−Apobec1−/− mice [1]; 0.003% diet): 26%
total area affected by atherosclerosis compared with control mice (en face) (Ldlr−/−Apobec1−/− mice [1]; 0.003% morelloflavone-containing diet): substantially lower
Ki-67-positive cells in atherosclerotic lesions (Ldlr−/−Apobec1−/− mice [2]): 0.0011±0.0003 cells/μm^2
Ki-67 index in atherosclerotic lesions (Ldlr−/−Apobec1−/− mice [2]): 1.6±0.5%
SMA-positive cells (SMA index) in atherosclerotic lesions (Ldlr−/−Apobec1−/− mice [2]): 0.0026±0.0007 cells/μm^2
SMA-positive cells (VSMCs) in atherosclerotic lesions (Ldlr−/−Apobec1−/− mice [2]): 15.4±3.5 cells/section
TUNEL index in atherosclerotic lesions (Ldlr−/−Apobec1−/− mice [2]): 0.4±0.2%
TUNEL-positive cells in atherosclerotic lesions (Ldlr−/−Apobec1−/− mice [2]): 0.00025±0.00008 cells/μm^2
macrophages (F4/80-positive cells) in the lesions (Ldlr−/−Apobec1−/− mice [2]): 32.3±8.0 cells/section
macrophages (F4/80 index) in the lesions (Ldlr−/−Apobec1−/− mice [2]): 0.0042±0.0018 cells/μm^2
reduction of SMA-positive cells per section vs control (Ldlr−/−Apobec1−/− mice [2]): 43%
reduction of SMA-positive cells per μm^2 vs control (Ldlr−/−Apobec1−/− mice [2]): 32%
